Reference: patent publication US10669258B2, “3-sulfonyl-5-aminopyridine-2,4-diol APJ agonists” (BRISTOL-MYERS SQUIBB COMPANY, priority 2016, dated 2020)
pEC50: −log10 of the molar value. Read-outs that look alike come from different tables or passages of the source.

Biological target: T1, human APJ receptor (Homo sapiens, UniProt P35414)
T1 construct: expressed in transfected cells; host or cells: HEK293
T1 sequence (P35414 1-380): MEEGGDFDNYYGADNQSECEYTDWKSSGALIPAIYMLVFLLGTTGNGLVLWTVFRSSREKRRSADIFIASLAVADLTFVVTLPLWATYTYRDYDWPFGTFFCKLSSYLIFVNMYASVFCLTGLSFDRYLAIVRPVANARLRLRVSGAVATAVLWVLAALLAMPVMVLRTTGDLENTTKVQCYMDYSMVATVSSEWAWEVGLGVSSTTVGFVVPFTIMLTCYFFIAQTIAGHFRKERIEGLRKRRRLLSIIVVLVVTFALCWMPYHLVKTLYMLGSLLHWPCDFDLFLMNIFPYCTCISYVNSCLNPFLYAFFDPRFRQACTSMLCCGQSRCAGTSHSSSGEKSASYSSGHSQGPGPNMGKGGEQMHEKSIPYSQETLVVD
Experiment: Intracellular cAMP accumulation assay (APJ hcAMP, HTRF)
Type: cell-based
Settings: HEK293 cells stably expressing human APJ receptor, inhibition of forskolin-mediated cAMP production
Method: Intracellular cAMP Accumulation Assay
HEK293 cells stably expressing human APJ receptor were used to assess the activity of compounds. Cultured cells were detached and resuspended in the cAMP Homogeneous Time-Resolved Fluorescence (HTRF) assay buffer (Cisbio cat; #62AM4PEJ). The assay was performed in 384-well assay plates (Perkin-Elmer; cat #6008289) according to assay protocol provided by the manufacturer. Serial dilutions of a compound together with assay buffer containing […] IBMX and 2 μM forskolin were added to each well containing 5,000 cells and incubated for 30 minutes at room temperature. Subsequently, cAMP D2 reagent was added in the lysis buffer followed by the EuK antibody (Cisbio; cat #62AM4PEJ) and incubated for 60 min. The fluorescence emission ratio was measured using fluorometer. The intracellular cAMP concentrations (compound-stimulated inhibition of forskolin-mediated cAMP production) were calculated by extrapolation from a standard curve using known cAMP concentrations. The EC50 values were obtained by fitting the data to a sigmoidal concentration-response curve with variable slope. The maximal achievable inhibition of forskolin-induced cAMP levels (Ymax) for each compound was expressed as relative percentage of inhibition attained using pyroglutamated apelin-13 ((Pyr1)apelin-13) peptide, which was set to 100%.
The examples disclosed below were tested in the APJ in vitro assays described above and were found having human APJ cyclic AMP (hcAMP) activity. The EC50 value of each compound is presented at the end of the example description.
The biological activity of the exemplified compounds of this invention determined by the assay described above is shown at the end of each example.

[1] = read-out: Human APJ cAMP Potency range
[2] = Table 1, read-out: hAPJ cAMP EC50 Potency range
[3] = hAPJ cAMP EC50 Potency range, Table 1

| SMILES | pEC50 [2] | also measured |
| --- | --- | --- |
| CCN(c1ccccc1)c1c(-c2ccn(C)n2)nc(O)c(C(=O)N2CCC(c3ccc(Cl)cn3)C2)c1O (single isomer, unassigned) [Example 199, (3-(5-chloropyridin-2-yl)pyrrolidin-1-yl)(5-(ethyl(phenyl)amino)-2,4-dihydroxy-6-(1-methyl-1H-pyrazol-3-yl)pyridin-3-yl)methanone] |  | pEC50 [1]: 8.00 to 11.00 |
| CCCCc1nc(O)c(S(=O)(=O)c2ccc(-c3ccnc(F)c3C)cc2)c(O)c1N1c2ccccc2CCC1C (stereo not shown) [167-I, 6-butyl-3-((4-(2-fluoro-3-methylpyridin-4-yl)phenyl)sulfonyl)-5-(2-methyl-3,4-dihydroquinolin-1(2H)-yl)pyridine-2,4-diol] | 8.00 to 11.00 |  |
| CCCCc1nc(O)c(S(=O)(=O)c2ccc(-c3ccnc(F)c3C)cc2)c(O)c1N(C)c1cccc(C#N)c1 [AB-005, 3-((2-butyl-5-((4-(2-fluoro-3-methylpyridin-4-yl)phenyl)sulfonyl)-4,6-dihydroxypyridin-3-yl)(methyl)amino)benzonitrile] |  | pEC50 [1]: 8.00 to 11.00 |
| CCCCc1nc(O)c(C(=O)N2CC[C@@H](c3ccccc3)C2)c(O)c1N(CC)c1ccccc1 [Example 001, (S)-(6-butyl-5-(ethyl(phenyl)amino)-2,4-dihydroxypyridin-3-yl)(3-phenylpyrrolidin-1-yl)methanone] |  | pEC50 (Human APJ cAMP Potency range): 7.00 to 8.00 |
| CCCCc1nc(O)c(S(=O)(=O)c2ccc(-c3ccc(F)nc3)cc2)c(O)c1N(CC)c1ccccc1 [Example 002, 6-butyl-5-(ethyl(phenyl)amino)-3-((4-(6-fluoropyridin-3-yl)phenyl)sulfonyl)pyridine-2,4-diol] |  | pEC50 [1]: 8.00 to 11.00 |
| CCCCc1nc(O)c(S(=O)(=O)c2ccc(-n3cc(C)ccc3=O)cc2)c(O)c1N(CC)c1ccccc1 [Example 003, 1-(4-((6-butyl-5-(ethyl(phenyl)amino)-2,4-dihydroxypyridin-3-yl)sulfonyl)phenyl)-5-methylpyridin-2(1H)-one] |  | pEC50 [1]: 8.00 to 11.00 |
| CCCCc1nc(O)c(S(=O)(=O)c2ccc(C3CC3)cc2)c(O)c1N(CC)c1ccccc1 [Example 004, 6-butyl-3-((4-cyclopropylphenyl)sulfonyl)-5-(ethyl(phenyl)amino)pyridine-2,4-diol] |  | pEC50 [1]: 8.00 to 11.00 |
| CCCCc1nc(O)c(C(=O)N2CCC(c3ncc(F)cc3F)C2)c(O)c1N(C)c1ccccc1F (stereo not shown) [Example 006, (6-butyl-5-((2-fluorophenyl)(methyl)amino)-2,4-dihydroxypyridin-3-yl)(3-(3,5-difluoropyridin-2-yl)pyrrolidin-1-yl)methanone] |  | pEC50 [1]: 8.00 to 11.00 |
| CCCCc1nc(O)c(C(=O)N2CC[C@@H](c3ccccc3)C2)c(O)c1N(C)c1ccccc1 [Example 007, (S)-(6-butyl-2,4-dihydroxy-5-(methyl(phenyl)amino)pyridin-3-yl)(3-phenylpyrrolidin-1-yl)methanone] |  | pEC50 [3]: 7.00 to 8.00 |
| CCCCc1nc(O)c(C(=O)N2CC[C@H](c3ccccc3)C2)c(O)c1N(C)c1ccccc1 [Example 008, (R)-(6-butyl-2,4-dihydroxy-5-(methyl(phenyl)amino)pyridin-3-yl)(3-phenylpyrrolidin-1-yl)methanone] |  | pEC50 [3]: 7.00 to 8.00 |
| CCCCc1nc(O)c(C(=O)N2CC[C@H](c3ccccc3)C2)c(O)c1N1CCc2ccccc21 [Example 009, (R)-(6-butyl-2,4-dihydroxy-5-(indolin-1-yl)pyridin-3-yl)(3-phenylpyrrolidin-1-yl)methanone] |  | pEC50 [3]: 7.00 to 8.00 |
| CCCCc1nc(O)c(S(=O)(=O)c2ccc(Br)cc2)c(O)c1N(C)c1ccccc1 [Example 010, 3-((4-bromophenyl)sulfonyl)-6-butyl-5-(methyl(phenyl)amino)pyridine-2,4-diol] | 7.00 to 8.00 |  |
| CCCCc1nc(O)c(S(=O)(=O)c2ccc(-c3ccnc(F)c3C)cc2)c(O)c1N(C)c1ccccc1 [Example 011, 6-butyl-3-((4-(2-fluoro-3-methylpyridin-4-yl)phenyl)sulfonyl)-5-(methyl(phenyl)amino)pyridine-2,4-diol] | 8.00 to 11.00 |  |
| CCCCc1nc(O)c(S(=O)(=O)c2ccc(-c3ccc(F)nc3)cc2)c(O)c1N(C)c1ccccc1 [Example 012, 6-butyl-3-((4-(6-fluoropyridin-3-yl)phenyl)sulfonyl)-5-(methyl(phenyl)amino)pyridine-2,4-diol] | 8.00 to 11.00 |  |
| CCCCc1nc(O)c(S(=O)(=O)c2ccc(-c3ccncc3C)cc2)c(O)c1N1CCc2ccccc21 [Example 013, 6-butyl-5-(indolin-1-yl)-3-((4-(3-methylpyridin-4-yl)phenyl)sulfonyl)pyridine-2,4-diol] | 8.00 to 11.00 |  |
| CCCCc1nc(O)c(S(=O)(=O)c2ccc(-c3ccncc3C)cc2)c(O)c1N(C)c1ccccc1 [Example 014, 6-butyl-5-(methyl(phenyl)amino)-3-((4-(3-methylpyridin-4-yl)phenyl)sulfonyl)pyridine-2,4-diol] | 8.00 to 11.00 |  |
| CCCCc1nc(O)c(S(=O)(=O)c2ccc(-c3ccc(F)nc3C)cc2)c(O)c1N(C)c1ccccc1 [Example 015, 6-butyl-3-((4-(6-fluoro-2-methylpyridin-3-yl)phenyl)sulfonyl)-5-(methyl(phenyl)amino)pyridine-2,4-diol] | 8.00 to 11.00 |  |
| CCCCc1nc(O)c(S(=O)(=O)c2ccc(C3CC3)cc2)c(O)c1N(C)c1ccccc1 [Example 016, 6-butyl-3-((4-cyclopropylphenyl)sulfonyl)-5-(methyl(phenyl)amino)pyridine-2,4-diol] | 8.00 to 11.00 |  |
| CCCCc1nc(O)c(S(=O)(=O)c2ccc(-c3cccnc3C)cc2)c(O)c1N(C)c1ccccc1 [Example 017, 6-butyl-5-(methyl(phenyl)amino)-3-((4-(2-methylpyridin-3-yl)phenyl)sulfonyl)pyridine-2,4-diol] | 8.00 to 11.00 |  |
| CCCCc1nc(O)c(S(=O)(=O)c2ccc(-n3cc(Cl)ccc3=O)cc2)c(O)c1N(C)c1ccccc1 [Example 018, 1-(4-((6-butyl-2,4-dihydroxy-5-(methyl(phenyl)amino)pyridin-3-yl)sulfonyl)phenyl)-5-chloropyridin-2(1H)-one] | 8.00 to 11.00 |  |
| CCCCc1nc(O)c(C(=O)N2CC[C@@H](c3ccccc3)C2)c(O)c1N1CCCc2ccccc21 [Example 019, (S)-(6-butyl-5-(3,4-dihydroquinolin-1(2H)-yl)-2,4-dihydroxypyridin-3-yl)(3-phenylpyrrolidin-1-yl)methanone] |  | pEC50 [3]: 7.00 to 8.00 |
| CCCCc1nc(O)c(S(=O)(=O)c2ccc(-c3ccnc(F)c3C)cc2)c(O)c1N(c1ccccc1)C(C)C [Example 020] | 8.00 to 11.00 |  |
| CCCCc1nc(O)c(S(=O)(=O)c2ccc(-c3ccc(F)nc3C)cc2)c(O)c1N1CCCc2ccccc21 [Example 021, 6-butyl-5-(3,4-dihydroquinolin-1(2H)-yl)-3-((4-(6-fluoro-2-methylpyridin-3-yl)phenyl)sulfonyl)pyridine-2,4-diol] | 8.00 to 11.00 |  |
| CCCCc1nc(O)c(S(=O)(=O)c2ccc(-c3ccncc3C)cc2)c(O)c1N1CCCc2ccccc21 [Example 022, 6-butyl-5-(3,4-dihydroquinolin-1(2H)-yl)-3-((4-(3-methylpyridin-4-yl)phenyl)sulfonyl)pyridine-2,4-diol] | 8.00 to 11.00 |  |
| CCCCc1nc(O)c(C(=O)N2CC[C@H](c3ccccc3)C2)c(O)c1N(c1ccccc1)C(C)C [Example 023, (R)-(6-butyl-2,4-dihydroxy-5-(isopropyl(phenyl)amino)pyridin-3-yl)(3-phenylpyrrolidin-1-yl)methanone] |  | pEC50 [3]: 7.00 to 8.00 |
| CCCCc1nc(O)c(S(=O)(=O)c2ccc(-c3cccnc3C)cc2)c(O)c1N1CCCc2ccccc21 [Example 024, 6-butyl-5-(3,4-dihydroquinolin-1(2H)-yl)-3-((4-(2-methylpyridin-3-yl)phenyl)sulfonyl)pyridine-2,4-diol] | 8.00 to 11.00 |  |
| CCCCc1nc(O)c(S(=O)(=O)c2ccc(-c3cccnc3C)cc2)c(O)c1N(c1ccccc1)C(C)C [Example 025, 6-butyl-5-(isopropyl(phenyl)amino)-3-((4-(2-methylpyridin-3-yl)phenyl)sulfonyl)pyridine-2,4-diol] | 8.00 to 11.00 |  |
| CCCCc1nc(O)c(S(=O)(=O)c2ccc(-c3ccc(F)nc3C)cc2)c(O)c1N(c1ccccc1)C(C)C [Example 026, 6-butyl-3-((4-(6-fluoro-2-methylpyridin-3-yl)phenyl)sulfonyl)-5-(isopropyl(phenyl)amino)pyridine-2,4-diol] | 8.00 to 11.00 |  |
